Values joined by “and” are separate entries in the source; they are usually repeats but may differ in a detail not shown here. Equal entries are not always repeated. Structures can show the parent of a compound that is named as a salt.
tested on: ATF4 translation (ATF4 pathway), SH-SY5Y-ATF4-NanoLuc cells; assay: ATF4 cell based assay (ATF4 5'-UTR NanoLuc luciferase reporter, Thapsigargin induced cellular stress); details: SH-SY5Y-ATF4-NanoLuc cells challenged with Thapsigargin for 14-18 hours; average of two or more experimental runs; hydrochloride; read-out: average ATF4 pathway inhibitory activity (IC50)
From the text: The ATF4 reporter assay measures the effect of Thapsigargin induced cellular stress on ATF4 expression. For this reporter assay, a stable cell line was created by transfecting SH-SY5Y cells with a plasmid containing the NanoLuc® luciferase gene fused to the 5′-UTR of ATF4, under the control of the CMV promoter. The ATF4 5′-UTR contains two open reading frames which mediate the cellular stress-dependent translation of the reporter gene. Clones stably expressing the reporter construct were isolated and selected based on the luminescence response to thapsigargin and inhibition of this signal by test compounds. Briefly, SH-SY5Y-ATF4-NanoLuc cells were challenged with Thapsigargin for 14-18 hours to determine the stress effect with or without test compounds.
Cells were propagated in growth media consisting of 90% DMEM F12 (InVitrogen #11320-033), 10% Fetal Bovine Serum (Gibco #10438-026), 5 mM Glutamax (Gibco #35050-061), 5 mM Hepes, (Gibco #15630-080), and 0.5 mg/ml Geneticin (Gibco #10131-027). Cells were prepared for the assay by removing all media from cells, washing the plated cells with phosphate buffered saline, and detached by adding a solution comprised of 10% Tryple express solution (InVitrogen12604-021) and 90% enzyme-free cell dissociation buffer HANKS base (Gibco 13150-016). The trypsin was deactivated by adding assay media comprised of 90% phenol-red free DMEM F12 (InVitrogen, 11039), 10% Fetal Bovine Serum (Gibco #10438-026), (5 mM Glutamax (Gibco #35050-061), 5 mM Hepes, (Gibco #15630-080), and 0.5 mg/ml Geneticin (Gibco #10131-027). Suspended cells were spun down at 300 g for 5 min, the supernatant was removed and the cell pellet was suspended in warm media (30-37° C.) comprised as above at (1e6 cell/ml).
Assay plates were prepared by adding 250 nL of compound stock solution in 100% DMSO to each well, followed by dispensing 20 microliters/well cell suspension to deliver 15-20 k cell/well. Cells were incubated for 1 hour at 37° C. Then, 5 μL of 1.5 μM or 1 μM of Thapsigargin (final concentration: 200-300 nM) was added to each well of cells. Assay plates containing cells were incubated for 14-18 hours at 37° C.
The measurement of luciferase produced by the ATF4 constructs was measured as follows. Aliquots of the Nano-Glo reagent (Nano-Glo® Luciferase Assay Substrate, Promega, N113, Nano-Glo® Luciferase Assay Buffer, Promega, N112 (parts of Nano-Glo® Luciferase Assay System, N1150) were brought to room temperature, the substrate and buffer were mixed according to manufacturer's instructions. The cell plates were equilibrated to room temperature. 25 microliters/well of the mixed Nano-Glo reagent were dispensed into assay wells and pulse spun to settle contents and the plate was sealed with film. The plates were incubated at room temperature for 1 hour before detecting luminescence on an Envision plate reader.
Compounds of the invention are tested for activity against ATF4 translation in the above assay.

IC50 [nM]	SMILES
136	O=C(COc1ccc(Cl)nc1)N[C@H]1[C@@H]2CN(CCCOc3ccc(Cl)cc3)C[C@@H]21 [Example 71, N-((1R,5S,6s)-3-(3-(4-chlorophenoxy)propyl)-3-azabicyclo[3.1.0]hexan-6-yl)-2-((6-chloropyridin-3-yl)oxy)acetamide hydrochloride]

same assay, conditions: SH-SY5Y-ATF4-NanoLuc cells challenged with Thapsigargin for 14-18 hours; average of two or more experimental runs; read-out: average ATF4 pathway inhibitory activity (IC50)

SMILES	IC50
O=C(COc1ccc(Cl)cc1)NCC1CCN(CCCOc2cccc(Cl)c2)C1 (stereo not shown) [Example 50, 2-(4-chlorophenoxy)-N-((1-(3-(3-chlorophenoxy)propyl)pyrrolidin-3-yl)methyl)acetamide]	101 to 1000 nM
O=C(COc1ccc(Cl)nc1)N[C@H]1[C@@H]2CN(CCCOc3ccc(Cl)cc3)C[C@@H]21 [Example 51, N-((1R,5S,6s)-3-(3-(4-chlorophenoxy)propyl)-3-azabicyclo[3.1.0]hexan-6-yl)-2-((6-chloropyridin-3-yl)oxy)acetamide]	< 100 nM
O=C(COc1ccc(Cl)cn1)N[C@H]1[C@@H]2CN(CCCOc3ccc(Cl)cc3)C[C@@H]21 [Example 52, N-((1R,5S,6s)-3-(3-(4-chlorophenoxy)propyl)-3-azabicyclo[3.1.0]hexan-6-yl)-2-((5-chloropyridin-2-yl)oxy)acetamide]	< 100 nM
O=C(COc1ccc(Cl)cc1)N[C@H]1[C@@H]2CN(CCCOc3ccc(Cl)cn3)C[C@@H]21 [Example 53, 2-(4-chlorophenoxy)-N-((1R,5S,6s)-3-(3-((5-chloropyridin-2-yl)oxy)propyl)-3-azabicyclo[3.1.0]hexan-6-yl)acetamide]	101 to 1000 nM
O=C(COc1ccc(Cl)c(F)c1)NCC1CCN(CCCOc2ccc(Cl)cc2)C1 (stereo not shown) [Example 55, 2-(4-chloro-3-fluorophenoxy)-N-((1-(3-(4-chlorophenoxy)propyl)pyrrolidin-3-yl)methyl)acetamide]	< 100 nM
O=C(COc1ccc(Cl)cn1)NCC1CCN(CCCOc2ccc(Cl)cc2)C1 (stereo not shown) [Example 56, N-((1-(3-(4-chlorophenoxy)propyl)pyrrolidin-3-yl)methyl)-2-((5-chloropyridin-2-yl)oxy)acetamide]	101 to 1000 nM
O=C(COc1ccc(Cl)cc1)NCC1(F)CCN(CCCOc2ccc(Cl)cc2)C1 (stereo not shown) [Example 60, 2-(4-chlorophenoxy)-N-((1-(3-(4-chlorophenoxy)propyl)-3-fluoropyrrolidin-3-yl)methyl)acetamide]	101 to 1000 nM
O=C(COc1ccc(Cl)cc1)NCC1CCN(CCCOc2ccc(Cl)c(Cl)c2)C1 (stereo not shown) [Example 61, 2-(4-chlorophenoxy)-N-((1-(3-(3,4-dichlorophenoxy)propyl)pyrrolidin-3-yl)methyl)acetamide]	< 100 nM
O=C(COc1ccc(Cl)cc1)NCC1CCN(CCCOc2ccc(Cl)cc2F)C1 (stereo not shown) [Example 62, N-((1-(3-(4-chloro-2-fluorophenoxy)propyl)pyrrolidin-3-yl)methyl)-2-(4-chlorophenoxy)acetamide]	< 100 nM
O=C(COc1ccc(Cl)cc1)NCC1CCN(CCCOc2ccc(C(F)(F)F)cc2)C1 (stereo not shown) [Example 63, 2-(4-chlorophenoxy)-N-((1-(3-(4-(trifluoromethyl)phenoxy)propyl)pyrrolidin-3-yl)methyl)acetamide]	101 to 1000 nM
O=C(COc1ccc(Cl)cc1)N[C@H]1[C@@H]2CN(CCCOc3ccc(Cl)nc3)C[C@@H]21 [Example 65, 2-(4-chlorophenoxy)-N-((1R,5S,6s)-3-(3-((6-chloropyridin-3-yl)oxy)propyl)-3-azabicyclo[3.1.0]hexan-6-yl)acetamide]	101 to 1000 nM
O=C(COc1ccc(Cl)cc1)NCC1CCN(CCCOc2ccc(Cl)cn2)C1 (stereo not shown) [Example 69, 2-(4-chlorophenoxy)-N-((1-(3-((5-chloropyridin-2-yl)oxy)propyl)pyrrolidin-3-yl)methyl)acetamide]	< 100 nM
O=C(COc1ccc(Cl)cc1)NCC1CCN(CC(O)COc2ccc(Cl)cc2)C1 (stereo not shown) [Example 77, 2-(4-chlorophenoxy)-N-((1-(3-(4-chlorophenoxy)-2-hydroxypropyl)pyrrolidin-3-yl)methyl)acetamide]	< 100 nM and 65 nM
O=C(COc1ccc(Cl)cc1)NCC1CN(CCCOc2ccc(Cl)cc2)CC1O (stereo not shown) [Example 80, 2-(4-chlorophenoxy)-N-((1-(3-(4-chlorophenoxy)propyl)-4-hydroxypyrrolidin-3-yl)methyl)acetamide]	< 100 nM

Now from value to molecule:

IC50	SMILES
< 100 nM	Cc1cc(OCCCN2CCC(CNC(=O)COc3ccc(Cl)cc3)C2)ccc1Cl (stereo not shown) [Example 57, N-((1-(3-(4-chloro-3-methylphenoxy)propyl)pyrrolidin-3-yl)methyl)-2-(4-chlorophenoxy)acetamide]
101 to 1000 nM	CC1C[C@H](CNC(=O)COc2ccc(Cl)cc2)CN1CCCOc1ccc(Cl)cc1 (stereo partly drawn) [Example 58, 2-(4-chlorophenoxy)-N-(((3R)-1-(3-(4-chlorophenoxy)propyl)-5-methylpyrrolidin-3-yl)methyl)acetamide]
101 to 1000 nM and 127 nM	O=C(COc1ccc(Cl)cc1)NCC1CCN(CCCOc2ccc(Cl)c(F)c2)C1 (stereo not shown) [Example 64, N-((1-(3-(4-chloro-3-fluorophenoxy)propyl)pyrrolidin-3-yl)methyl)-2-(4-chlorophenoxy)acetamide]
101 to 1000 nM	O=C(COc1ccc(Cl)cc1)NCC1CCN(CCCOc2ccc(Cl)cc2Cl)C1 (stereo not shown) [Example 66, 2-(4-chlorophenoxy)-N-((1-(3-(2,4-dichlorophenoxy)propyl)pyrrolidin-3-yl)methyl)acetamide]
101 to 1000 nM	Cc1cc(Cl)ccc1OCCCN1CCC(CNC(=O)COc2ccc(Cl)cc2)C1 (stereo not shown) [Example 67, N-((1-(3-(4-chloro-2-methylphenoxy)propyl)pyrrolidin-3-yl)methyl)-2-(4-chlorophenoxy)acetamide]
101 to 1000 nM	O=C(COc1ccc(Cl)cc1)NC[C@@H]1CCN(CCCOc2ccc(Cl)cc2)C1 [Example 70, (S)-2-(4-chlorophenoxy)-N-((1-(3-(4-chlorophenoxy)propyl)pyrrolidin-3-yl)methyl)acetamide]
< 100 nM	O=C(COc1ccc(Cl)c(C(F)(F)F)c1)NCC1CCN(CCCOc2ccc(Cl)cc2)C1 (stereo not shown) [Example 72, 2-(4-chloro-3-(trifluoromethyl)phenoxy)-N-((1-(3-(4-chlorophenoxy)propyl)pyrrolidin-3-yl)methyl)acetamide]
< 100 nM	O=C(COc1ccc(Cl)cc1)NC[C@H]1CCN(CCCOc2ccc(Cl)cc2)C1 [Example 73, (R)-2-(4-chlorophenoxy)-N-((1-(3-(4-chlorophenoxy)propyl)pyrrolidin-3-yl)methyl)acetamide]
101 to 1000 nM	O=C(COc1ccc(Cl)cc1)NCC1CCN(CCCOc2ccc(Cl)cc2)C1=O (stereo not shown) [Example 75, 2-(4-chlorophenoxy)-N-((1-(3-(4-chlorophenoxy)propyl)-2-oxopyrrolidin-3-yl)methyl)acetamide]
< 100 nM	O=C(COc1ccc(Cl)cc1)N[C@H]1[C@@H]2CN(CC(O)COc3ccc(Cl)cc3)C[C@@H]21 (stereo partly drawn) [Example 76, 2-(4-chlorophenoxy)-N-((1R,5S,6s)-3-(3-(4-chlorophenoxy)-2-hydroxypropyl)-3-azabicyclo[3.1.0]hexan-6-yl)acetamide]
< 100 nM	O=C(COc1ccc(Cl)cc1)N[C@H]1[C@@H]2CN(CC(F)COc3ccc(Cl)cc3)C[C@@H]21 (stereo partly drawn) [Example 78, 2-(4-chlorophenoxy)-N-((1R,5S,6s)-3-(3-(4-chlorophenoxy)-2-fluoropropyl)-3-azabicyclo[3.1.0]hexan-6-yl)acetamide]
< 100 nM	CN(Cc1ccc(Cl)cc1)C(=O)N1CCC(CNC(=O)COc2ccc(Cl)cc2)C1 (stereo not shown) [Example 79, N-(4-chlorobenzyl)-3-((2-(4-chlorophenoxy)acetamido)methyl)-N-methylpyrrolidine-1-carboxamide]
101 to 1000 nM	O=C(COc1ccc(Cl)cc1)NCC1CC(=O)N(CCCOc2ccc(Cl)cc2)C1 (stereo not shown) [Example 81, 2-(4-chlorophenoxy)-N-((1-(3-(4-chlorophenoxy)propyl)-5-oxopyrrolidin-3-yl)methyl)acetamide]
